The record followed here is patent publication US7927821B2, “Methods of screening for compounds which bind G protein-coupled receptors” (Takeda Pharmaceutical Company Limited, priority 2004, dated 2011).

This assay has as its target TGR25-GFP fusion protein (UniProt P42212+Q86Y34, F64L/I167T/S65C). The assay can be described thus: Internalization of the TGR25-GFP fusion protein expressed on CHO cells (confocal microscope). It counts as cell-based, human. The conditions noted are these: 100 μM AM251, 45 minutes, 37° C.

As for `Cc1c(C(=O)NN2CCCCC2)nn(-c2ccc(Cl)cc2Cl)c1-c1ccc(I)cc1` [AM251, 1-(2,4-dichlorophenyl)-5-(4-iodophenyl)-4-methyl-N-piperidin-1-yl-1H-pyrazole-3-carboxamide], the “localization of the TGR25-GFP fusion protein (internalization)” value is “moved in part to the cytoplasm”.
